Experimental data taken from patent publication US4849207A, “Porphyrin derivatives” (Nihon Medi-Physics Co., Ltd., priority 1985, dated 1989).

Tests used:
pancreatic cancer [1] = test: Distribution of a radioactive diagnostic agent in cancer-bearing hamster (cancer/organ radioactivity level ratio); conditions: 300 μCi i.v., 96 hours after administration
Procedure: With lapse of time, the animals were sacrificed, and the organs were extracted and subjected to measurement of radioactivity and weight, from which the radioactivity level ratio between the cancer and each organ was determined.
With lapse of time, the animals were sacrificed, and the ogans were extracted and subjected to measurement of radioactivity and weight, from which the radioactivity level ratio between the cancer and each organ was determined.

pancreatic cancer [2] = test: Scintigraphy in cancer-bearing hamster; type: in vivo; conditions: 300 μCi i.v., 72 and 96 hours after administration
Procedure: (§1) Scintigraphy was obtained 72 and 96 hours after the administration by the use of a gamma-camera equipped with a medium energy high resolution type collimator.

tumor = test: Distribution in cancer-bearing and inflammation-induced hamsters, tumor to tissue
Procedure: as §1

[3] = system: inflammation (turpentine oil induced); test: Distribution in cancer-bearing and inflammation-induced hamsters, inflammation to tissue; conditions: 72 hour post-injection
Procedure: as §1

[4] = system: inflammation (croton oil induced); test: Distribution in inflammation-induced rats, inflammation to tissue; type: in vivo, SD rats
Procedure: SD rats of about 200 grams in bodyweight received croton oil (0.1 ml) at the right hind leg subcutaneously to induce inflammation. […] The radioactivity level ratio between the inflamation and each tissue was determined.

[5] = 72 hour post-injection, mean and s.d. for 3 animals, or mean for 2 animals
[6] = hamster, mean and s.d. for 3 animals, or mean for 2 animals
[7] = SD rat, 72 hour post-injection, mean and s.d. for 3 animals

2-[1-(^111 In-diethylenetriamine-tetraacetic acid-acetyloxyethane)oxyethyl]-4-[1-(2-hydroxyethyl)oxyethyl] Ga-deuteroporphyrin [^111 In--monoDTPA--EG Ga--DP]
Cancer/Blood radioactivity level ratio (pancreatic cancer [1]): 61.89 | Cancer/Heart radioactivity level ratio (pancreatic cancer [1]): 3.41 | Cancer/Kidney radioactivity level ratio (pancreatic cancer [1]): 0.91 | Cancer/Liver radioactivity level ratio (pancreatic cancer [1]): 0.53 | Cancer/Lung radioactivity level ratio (pancreatic cancer [1]): 1.33 | Cancer/Spleen radioactivity level ratio (pancreatic cancer [1]): 0.43 | scintigraphic imaging of the locus of cancer (pancreatic cancer [2]): the locus of cancer could be clearly imaged at both stages | imaging of tumor compared with ^67 Ga citrate (in words) (tumor; 72 hour post-injection): superior to ^67 Ga citrate | Tumor to tissue concentration ratio: Blood (tumor; [5]): 55.75 ± 10.61 | Tumor to tissue concentration ratio: Heart (tumor; [5]): 1.14 ± 0.28 | Tumor to tissue concentration ratio: Kidney (tumor; [5]): 0.79 ± 0.08 | Tumor to tissue concentration ratio: Liver (tumor; [5]): 0.21 ± 0.06 | Tumor to tissue concentration ratio: Lung (tumor; [5]): 0.52 ± 0.33 | Tumor to tissue concentration ratio: Muscle (tumor; [5]): 22.16 ± 6.53 | Tumor to tissue concentration ratio: Spleen (tumor; [5]): 0.16 ± 0.03 | affinities to tumor and inflammation (in words) (tumor; from Table 5, compared with each other): nearly equal in affinities to tumor and inflammation | imaging of inflammation compared with ^67 Ga citrate (in words) [3]: inferior to ^67 Ga citrate | Inflammation to tissue concentration ratio: Blood [3, 6]: 22.96 ± 9.56 | Inflammation to tissue concentration ratio: Heart [3, 6]: 0.49 ± 0.26 | Inflammation to tissue concentration ratio: Kidney [3, 6]: 0.33 ± 0.13 | Inflammation to tissue concentration ratio: Liver [3, 6]: 0.21 ± 0.16 | Inflammation to tissue concentration ratio: Lung [3, 6]: 0.21 ± 0.14 | Inflammation to tissue concentration ratio: Muscle [3, 6]: 8.71 ± 2.98 | Inflammation to tissue concentration ratio: Spleen [3, 6]: 0.06 ± 0.01 | Inflammation to tissue concentration ratio: Blood [4, 7]: 185.25 ± 82.70 | Inflammation to tissue concentration ratio: Heart [4, 7]: 2.40 ± 0.63 | Inflammation to tissue concentration ratio: Kidney [4, 7]: 1.42 ± 0.35 | Inflammation to tissue concentration ratio: Liver [4, 7]: 0.14 ± 0.04 | Inflammation to tissue concentration ratio: Lung [4, 7]: 1.43 ± 0.32 | Inflammation to tissue concentration ratio: Muscle [4, 7]: 19.23 ± 10.45 | Inflammation to tissue concentration ratio: Spleen [4, 7]: 0.18 ± 0.03 | accumulation in inflammation compared with ^67 Ga citrate (in words) ([4]; from Table 6): much lesser accumulation in inflammation than ^67 Ga citrate
